Results: patent US10487071B2, “Bis-triazole compounds with anti-biofilm and anti-corrosion properties” (Université de Toulon, priority 2015, dated 2019)
Like-named read-outs stand apart in the source and are kept apart here.

Tests used:
[1] = tested on: Paracoccus sp. (4M6); experiment: Anti-adhesion test, strain 4M6; type: cell-based; conditions: Paracoccus; for activity at 200 µM: 15 h, read-out: % of adhesion at 200 μM, 4M6; for EC50: read-out: EC50 (effective concentration to inhibit 50% of the adhesion), 4M6
Experimental: (§1) The anti-adhesion bioassays and toxicity tests are adapted from those disclosed in M. Camps, J.-F. Briand, L. Guentas-Dombrowsky, G. Culioli, A. Bazire and Y. Blache, Mar. Poll.
(§2) Bacterial strains were grown on Väätänen nine-salts solution (VNSS). When the stationary phase was reached, the bacterial suspension was centrifuged. Cells were then diluted in sterile artificial sea water (ASW) and introduced in microtiter plates (sterile black PS; Nunc, Fisher Scientific, France) with the tested compound (at eight concentrations in three replicates) in the presence of three controls: (i) non-specific staining control, (ii) adhesion control, and (iii) positive control. The maximum percentage of solvent (DMSO 2%) used to dilute the tested compound was also tested in triplicate as additional control. After incubation during an optimized adhesion time (moderately 15 h), non-adhered bacteria were eliminated and adhered cells were quantified after SYTO 61 (1 μM) staining. A percentage of inhibition was calculated per well. A sigmoid dose-response curve was obtained by plotting the percentage of inhibition as a function of the log of tested compound concentration, after mean (n=3) and standard deviation (SD) calculation per triplicate for each concentration. EC50 values were then calculated for each compound.

[2] = tested on: Pseudoalteromonas lipolytica (TC8); experiment: Anti-adhesion test, strain TC8; type: cell-based; conditions: Pseudoalteromonas lipolytica; for activity at 200 µM: 15 h, read-out: % of adhesion at 200 μM, TC8; for EC50: read-out: EC50 (effective concentration to inhibit 50% of the adhesion), TC8
Experimental: as §1, §2

[3] = tested on: Pseudoalteromonas ulvae (TC14); experiment: Anti-adhesion test, strain TC14; type: cell-based; conditions: Pseudoalteromonas ulvae; for activity at 200 µM: 15 h; for EC50: read-out: EC50 (effective concentration to inhibit 50% of the adhesion)
Experimental: as §2
(§3) Pseudoalteromonas ulvae (TC14) was isolated in June 2010 in the Military Harbor of Toulon (Mediterranean Sea, France) as described in F. Brian-Jaisson, A. Ortalo-Magné, L. Guentas-Dombrowsky, F. Armougom, Y. Blache, M. Molmeret, Microb. Ecol., 2014, 68, 94-110.

[4] = tested on: marine bacterial strains (TC14, TC8, 4M6, TC5 and TC11); experiment: Anti-adhesion test, summary over the strains; type: cell-based
Experimental: as §2
(§4) In examples 64 and 65, the following marine bacterial strains are used.

[5] = Gravimetry (weight loss), corrosion inhibition; conditions: mild steel in 1N HCl
Experimental: The corrosion rates were determined by electrochemical impedance spectroscopy measurements and gravimetry.
Weight loss measurements were performed on 2.5×2.0×0.1 cm rectangular mild steel coupons. The mild steel coupons were immersed into non-de-aerated HCl 1N solution in absence and presence of different concentrations of compounds of general formula (I). After the elapsed time, the coupons were taken out, washed, dried and weighed accurately. Experiments were duplicated.
Weight loss experiments were done to confirm the corrosion inhibitive properties of AS164.
The inhibition efficiency, IE (%), was estimated from the weight loss experiments using the following equation:
[formula] wherein CR^o and CR are respectively the corrosion rate in the absence and presence of AS164.

[6] = tested on: Shewanella sp. (TC11); experiment: Anti-adhesion test, strain TC11; type: cell-based; conditions: for activity at 200 µM: 15 h, strain TC11, read-out: % of adhesion at 200 μM, TC11; for EC50: read-out: EC50 (effective concentration to inhibit 50% of the adhesion), strain TC11
Experimental: as §2
(§5) Shewanella sp. (TC11) was isolated in June 2010 in the Military Harbor of Toulon (Mediterranean Sea, France) as described in F. Brian-Jaisson, A. Ortalo-Magné, L. Guentas-Dombrowsky, F. Armougom, Y. Blache, M. Molmeret, Microb. Ecol., 2014, 68, 94-110.

[7] = tested on: Polaribacter sp. (TC5); experiment: Anti-adhesion test, strain TC5; type: cell-based; conditions: for activity at 200 µM: 15 h; for EC50: read-out: EC50 (effective concentration to inhibit 50% of the adhesion)
Experimental: as §2
(§6) Polaribacter sp. (TC5) was isolated in June 2010 in the Military Harbor of Toulon (Mediterranean Sea, France) as described in F. Brian-Jaisson, A. Ortalo-Magné, L. Guentas-Dombrowsky, F. Armougom, Y. Blache, M. Molmeret, Microb. Ecol., 2014, 68, 94-110.

[8] = tested on: marine bacterial strains (TC14, TC8, 4M6, TC5 and TC11); experiment: Toxicity test, summary over the strains; type: cell-based; conditions: comparison with reference biocides
Excerpt: as §4

[9] = tested on: Paracoccus sp. (4M6); experiment: microbe, parasite or virus in culture
Excerpt: as §1
(§7) After growth on VNSS, bacterial strains were harvested during the exponential phase. The microtiter plates (sterile transparent PS; Nunc, Fisher Scientific) were filled as described in the Anti-adhesion test method using VNSS instead of ASW to allow bacterial growth. The growth was followed by measuring the turbidity (OD600 nm) every hour during 6 or 7 hours. Then, resazurin (50 μM) was added in all the wells, and fluorescence was measured after 2 h to quantify the percent of bacterial viability. The same methodology used with SYTO 61 was applied to calculate a percent of viability after resazurin staining.

[10] = tested on: Pseudoalteromonas lipolytica (TC8); experiment: microbe, parasite or virus in culture
Excerpt: as §1, §7

[11] = tested on: Polaribacter sp. (TC5); experiment: Toxicity test, strain TC5; type: cell-based
Excerpt: as §6

[12] = tested on: Shewanella sp. (TC11); experiment: Toxicity test, strain TC11; type: cell-based
Excerpt: as §5

[13] = tested on: Pseudoalteromonas ulvae (TC14); experiment: Toxicity test, strain TC14; type: cell-based
Excerpt: as §3

[14] = read-out: inhibition of the adhesion of at least two marine bacterial strains

SMILES	activity at 200 µM [1] [%]	EC50 [1] [µM]	activity at 200 µM [2] [%]	activity at 200 µM [3] [%]	EC50 [3] [µM]	inhibition at 200 µM [4, 14] [%]	EC50 [2] [µM]	IE % ([5]; 0.1 ppm) [%]	IE % ([5]; 0.3 ppm) [%]	IE % ([5]; 0.5 ppm) [%]	IE % ([5]; 2 ppm) [%]	IE % ([5]; 10 ppm) [%]	activity at 200 µM [6] [%]	EC50 [6] [µM]	activity at 200 µM [7] [%]	EC50 [7] [µM]	other results
Oc1ccc(CCn2cc(-c3ccc(-c4cn(CCc5ccc(O)c(Br)c5)nn4)cc3)nn2)cc1Br [NT23, 1,4 bis (1-(3-bromo-4-hydroxyphenethyl)-1H-1,2,3-triazol-4-yl) benzene]	31.8 ± 3.5	59.9 ± 7.7	58.3 ± 8.7	31 ± 6.1	40.9 ± 11.4	≥ 65	–	–	–	–	–	–	–	–	–	–	–
Oc1ccc(CCn2cc(CNCc3cn(CCc4ccc(O)c(Br)c4)nn3)nn2)cc1Br [NT27]	27.8 ± 16.3	88.3 ± 46.2	28.9 ± 17	29.3 ± 7.5	59.9 ± 27.2	≥ 65	80.3 ± 18.9	–	–	–	–	–	–	–	–	–	–
CN(C)CCOc1ccc(CCn2cc(-c3ccc(-c4cn(CCc5ccc(OCCN(C)C)c(I)c5)nn4)cc3)nn2)cc1I [SA45, 2-(4-(2-(4-(4-(1-(4-(2-(dimethylamino)ethoxy)-3-iodophenethyl)-1H-1,2,3-triazol-4-yl)phenyl)-1H-1,2,3-triazol-1-yl)ethyl)-2-iodophenoxy)-N,N-dimethylethanamine]	3.2 ± 4.6	14.2 ± 3.2	30 ± 16.3	42.1 ± 2.9	175 ± 21.2	–	135 ± 34.3	78.07	93.01	94.67	95.23	96.09	9.3 ± 0.5	129 ± 13.2	37.5 ± 13.3	147 ± 32.4	–
CN(C)CCOc1ccc(CCn2cc(COCc3cn(CCc4ccc(OCCN(C)C)c(Br)c4)nn3)nn2)cc1Br [AS163, 2-(4-(2-(4-(((1-(4-(2-(dimethylamino)ethoxy)-3-bromophenethyl)-1H-1,2,3-triazol-4-yl)methoxy)methyl)-1H-1,2,3-triazol-1-yl)ethyl)-2-bromophenoxy)-N,N-dimethylethanamine]	40.4 ± 7.8	146 ± 81.9	34.6 ± 5.1	34.8 ± 2.7	91.8 ± 17.9	≥ 65	102 ± 46.2	82.24	89.36	94.54	96.52	97.07	–	–	–	–	–
Oc1ccc(CCn2cc(-c3ccc(-c4cn(CCc5ccc(O)c(I)c5)nn4)cc3)nn2)cc1I [SA43, 1,4 bis (1-(3-iodo-4-hydroxyphenethyl)-1H-1,2,3-triazol-4-yl) benzene]	13.6 ± 8.9	53.8 ± 50.9	10.5 ± 12	6.8 ± 1.2	20.7 ± 5.2	≥ 65	30.3 ± 31.3	–	–	–	–	–	4.6 ± 0.1	1.1 ± 0.6	23.8 ± 0.1	58 ± 1.61	toxicity by LC50 values compared with TBTO/ZINEB [8]: less toxic than ZINEB; CC50 ([9]; Paracoccus, read-out: LC50 (necessary concentration to kill 50% of the bacteria), 4M6): 352 µM; IS: LC50/EC50 (selectivity index), 4M6 ([9]; strain 4M6): 6.5; CC50 ([10]; Pseudoalteromonas lipolytica, read-out: LC50 (necessary concentration to kill 50% of the bacteria), TC8): 270 µM; IS: LC50/EC50 (selectivity index), TC8 ([10]; strain TC8): 8.9; IS: LC50/EC50 (selectivity index), TC5 [11]: 5.5; CC50 ([11]; read-out: LC50 (necessary concentration to kill 50% of the bacteria)): 320 µM; IS: LC50/EC50 (selectivity index), TC11 [12]: 80.4; LC50 (necessary concentration to kill 50% of the bacteria), TC11 [12]: 88.4 µM; EC50 compared with TBTO/ZINEB ([4]; comparison with reference biocides): comparable to that of ZINEB; inhibition at 200 µM ([4]; read-out: inhibition of the adhesion of at least four marine bacterial strains): ≥ 85%; IS: LC50/EC50 (selectivity index), TC14 [13]: 11.4; LC50 (necessary concentration to kill 50% of the bacteria), TC14 [13]: 236.9 µM
CN(C)CCCOc1ccc(CCn2cc(-c3ccc(-c4cn(CCc5ccc(OCCCN(C)C)cc5)nn4)cc3)nn2)cc1 [SA12, 3-(4-(2-(4-(4-(1-(4-(3-(dimethylamino)propoxy)phenethyl)-1H-1,2,3-triazol-4-yl)phenyl)-1H-1,2,3-triazol-1-yl)ethyl)phenoxy)-N,N-dimethylpropan-1-amine]	14.3 ± 7.3	73.2 ± 10.7	30 ± 21.9	42.4 ± 8.6	187 ± 16.5	–	177 ± 80.1	39.30	69.97	94.65	96.89	95.73	41 ± 4.1	173 ± 22.4	66.2 ± 2.8	–	–
CN(C)CCCOc1ccc(CCn2cc(-c3ccc(-c4cn(CCc5ccc(OCCCN(C)C)c(I)c5)nn4)cc3)nn2)cc1I [SA46, 3-(4-(2-(4-(4-(1-(4-(3-(dimethylamino)propoxy)-3-iodophenethyl)-1H-1,2,3-triazol-4-yl)phenyl)-1H-1,2,3-triazol-1-yl)ethyl)-2-iodophenoxy)-N,N-dimethylpropan-1-amine]	26.6 ± 3.4	48.3 ± 48.9	17.4 ± 14.3	30.2 ± 3.5	74.4 ± 8.3	–	71.5 ± 4.1	82.23	90.47	94.51	96.05	94.96	5.8 ± 1.2	22.2 ± 13.6	22.4 ± 14.7	70.6 ± 8.9	–
